“Also recorded” adds a separate entry of the source. Where no end group is shown, it is not given here.
Key:
endogenous Treg cells = assay: Endogenous Fat1562/A^b tetramer^+ Treg cells and scTCR-seq after immunization of wild-type B6 mice; assay type: in vivo, mouse
Source text: We next investigated whether Fat1562 immunization of wild-type B6 mice would elicit expansion of particular Treg clones in VAT, and whether their TCRs would resemble the vTreg53 TCR. 16–20 week-old B6 mice were immunized with Fat1562 using the prime and boost scheme (Figure 4—figure supplement 1A), and the Fat1562-reactive CD4^+ T cells were characterized by staining with the Fat1562/A^b-PE tetramer. […] We then sorted individual Fat1562/A^b tetramer^+ Treg cells from the spleen and VAT of these 3 mice into 96-well plates, and determined the sequences of their TCR-β and TCR-α complementarity-determining region (CDR)3 s. […] Within each mouse, the Spl/LNs and VAT Treg clones had the same CDR3α and CDR3β. […] Therefore, although with some degree of variability, Fat1562 was able to expand an endogenous Treg population that highly resembled the original vTreg53 VAT-Treg clone.
Foxp3^+CD4^+ TCRβ^+ Fat1562/A^b-PE^+ Treg cells from VAT or pooled Spl/LN of 16–20 week-old Foxp3-GFP mice were first sorted in bulk before resorting as individual cells using a MoFlo (Beckman Coulter) into wells of 96-well PCR plates containing the reverse transcriptase reaction mix, and cDNA was prepared as described previously ([Burzyn et al., 2013]). Extreme caution was taken to minimize contamination of wells. […]

vTreg53 Treg cells = assay: RNA-seq of transferred clonotype^+ Treg cells after immunization; assay type: in vivo, mouse
Source text: Figure 5. Transcriptional analyses of vTreg53 Treg cells stimulated by Fat1562 in vivo. (A–C) CD45.2^+ vTreg53 Treg cells were transferred i.v. into CD45.1^+ B6 mice. 6 weeks later, the recipient mice were immunized with CFA alone or CFA/Fat1562 s.c., and one week later, boosted with IFA alone or IFA/Fat1562 i.p. CD45.2^+ clonotype^+ Treg cells were sorted from Spl/LNs or VAT of the recipient mice one week later for RNA-Seq. (A) Volcano plot comparing gene expression of transferred clonotype^+ Treg cells in the VAT and Spl/LNs of recipient mice immunized with adjuvant alone (left) or with adjuvant/Fat1562 (right). VAT-Treg signature genes are highlighted in red (induced) or blue (repressed). The number of genes from each signature preferentially expressed by one or the other population are shown at the top. (B) GSEA analysis of top KEGG pathways (p<0.05) that are enriched in cells activated by adjuvant/Fat1562 compared with adjuvant alone in VAT (left) or Spl/LN (right). NES, normalized enrichment score. FDR, false discovery rate. (C) Normalized reads of Pparg transcript in CD45.2^+ clonotype^+ Treg cells sorted from mice immunized with adjuvant alone or adjuvant/Fat1562. Data are mean ± SD. (D) Volcano plot comparing gene expression of transferred clonotype^+ Treg cells in mice immunized with adjuvant/Fat1562 and adjuvant alone in the VAT (left) and spleen (right). Representative transcripts are highlighted.
6–8 week-old B6.CD45.1^+ mice were transferred with Tg^+ Treg cells from Spl/LNs, and six weeks later were primed with 200 μg CFA/peptides s.c. and boosted with 100 μg IFA/peptides i.p. as described in the ‘Treg transfer and peptide immunization’ section. Biological replicates (n ≥ 2) of 1000 clonotype^+ CD45.2^+ Treg cells from the Spl/LNs or VAT of recipient mice were double-sorted by Moflo directly into 5ɥl lysis buffer (TCL Buffer (Qiagen) with 1% 2-Mercaptoethanol), Smart-seq2 libraries were prepared as previously described ([Picelli et al., 2014]) with slight modifications. Briefly, total RNA was captured and purified on RNAClean XP beads (Beckman Coulter). Polyadenylated mRNA was then selected using an anchored oligo(dT) primer (5′–[…]30VN-3) and converted to cDNA via reverse transcription. First-strand cDNA was subjected to limited PCR amplification followed by Tn5 transposon-based fragmentation using the Nextera XT DNA Library Preparation Kit (Illumina). Samples were then PCR amplified for 18 cycles using barcoded primers such that each sample carried a specific combination of eight-base Illumina P5 and P7 barcodes and were pooled together prior to Smart sequencing. Smart-seq paired-end sequencing was performed on an Illumina NextSeq500 using 2 × 38 bp reads with no further trimming. Transcripts were quantified by the Broad Technology Labs computational pipeline with Cuffquant version 2.2.1 ([Trapnell et al., 2012]). Normalized reads were further filtered by minimal expression (>10) and coefficient of variation (<0.7), and then analyzed by Multiplot Studio in the GenePattern software package. Pathway enrichment analysis was done using GSEA.

TMYKNPRPMAATG [Fat1562]
mice with detectable expansion of Fat1562/A^b tetramer^+ Treg population (endogenous Treg cells; out of the 10 mice immunized, Spl/LN and VAT, 16–20 week-old B6): three | clonality of Fat1562/A^b tetramer^+ Treg population (endogenous Treg cells; three mice, scTCR-seq of CDR3α/β): almost entirely monoclonal | Pparg mRNA levels in Spl/LN relative to VAT (vTreg53 Treg cells; Spl/LN vs Fat1562-stimulated VAT Treg cells): substantially lower | Pparg mRNA levels (vTreg53 Treg cells; Treg cells stimulated by Fat1562 in vivo (Spl/LN)): significantly increased; also recorded: increase in Pparg mRNA levels | Lag3 and Tigit expression (vTreg53 Treg cells; VAT, adjuvant/Fat1562 vs adjuvant alone): upregulated | pathway enrichment in VAT Treg cells, GSEA (vTreg53 Treg cells; VAT, adjuvant/Fat1562 vs adjuvant alone: cell division and glycolysis): significant enrichment in pathways and transcripts related to cell division (E2F targets, G2M checkpoint, MYC targets, Mitotic spindle) and glycolysis | VAT-Treg signature gene expression (vTreg53 Treg cells; clonotype^+ VAT Treg cells, adjuvant/Fat1562): preserved the typical VAT-Treg characteristics; also recorded: maintained the typical VAT-Treg signature | cholesterol homeostasis genes (vTreg53 Treg cells; lymphoid organs, adjuvant/Fat1562 vs adjuvant alone (e.g. Pparg, Nfil3, Srebf2)): enrichment of genes involved in cholesterol homeostasis | inflammatory cytokine response genes (vTreg53 Treg cells; lymphoid organs, adjuvant/Fat1562 vs adjuvant alone, IFNα, IFNγ, TNFα): increased expression of genes associated with responses to inflammatory cytokines (IFNα, IFNγ, and TNFα)

Reference: publication PMC7440915, “Discovery of surrogate agonists for visceral fat Treg cells that modulate metabolic indices in vivo” (eLife, 2020)
